Data taken from ChEMBL document CHEMBL1201862, “PubChem BioAssay data set” (2004).
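In this assay, cells in 96-well plates receive the compound at five concentrations for 48 hours. Endpoints are linearly interpolated between the surrounding concentrations. GI50: concentration for 50% inhibition of growth.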 Calls of active or inactive are those of the source. No stated cut-off is given here; in the data, active = GI50 up to about 1.1 µM and inactive = higher.

Key:
Assay in all cases: NCI-60 cell line screen, 48 h
[1] = test system: A498
[2] = test system: ACHN
[3] = test system: DU-145
[4] = test system: HOP-62
[5] = test system: HOP-92
[6] = test system: Hs-578T
[7] = test system: M14
[8] = test system: NCI-H522
[9] = test system: OVCAR-3
[10] = test system: OVCAR-4
[11] = test system: PC-3
[12] = test system: SF-268
[13] = test system: SK-MEL-28
[14] = test system: T47D
[15] = test system: U-251
[16] = test system: UACC-257
[17] = test system: UACC-62
[18] = test system: HCC 2998

Row | Structure (SMILES) | GI50 [1] | GI50 [2] | GI50 [3] | GI50 [4] | GI50 [5] | GI50 [6] | GI50 [7] | GI50 [8] | GI50 [9] | GI50 [10] | GI50 [11] | GI50 [12] | GI50 [13] | GI50 [14] | GI50 [15] | GI50 [16] | GI50 [17] | GI50 [18]
1 | CN(C)CCCOc1nc2c(c(=O)n(C)c(=O)n2C)n1C.SC1=NC=NC2=NC=NC12 | 32.8 µM (inactive) | 6.84 µM (inactive) | 0.692 µM (active) | 18.5 µM (inactive) | > 100 µM (inactive) | 16 µM (inactive) | 8.38 µM (inactive) | 2.79 µM (inactive) | 0.656 µM (active) | 2.25 µM (inactive) | 8.53 µM (inactive) | 6.31 µM (inactive) | 55.5 µM (inactive) | 68.9 µM (inactive) | 18.1 µM (inactive) | 6 µM (inactive) | 1.14 µM (inactive) | –
2 | Cc1nc2cccc([N+](=O)[O-])c2n1CCCN(C)C | > 100 µM (inactive) | > 100 µM (inactive) | > 100 µM (inactive) | > 100 µM (inactive) | – | > 100 µM (inactive) | 22.6 µM (inactive) | > 100 µM (inactive) | > 100 µM (inactive) | > 100 µM (inactive) | > 100 µM (inactive) | > 100 µM (inactive) | > 100 µM (inactive) | > 100 µM (inactive) | > 100 µM (inactive) | > 100 µM (inactive) | > 100 µM (inactive) | > 100 µM (inactive)
3 | O=S(=O)(N/C(=N\O)Nc1ccc(Cl)cc1)c1cc(C(F)(F)F)cc(C(F)(F)F)c1 | – | 17.3 µM (inactive) | 21.3 µM (inactive) | 18.7 µM (inactive) | 16.2 µM (inactive) | 23 µM (inactive) | 17.4 µM (inactive) | 18.9 µM (inactive) | 16 µM (inactive) | 15 µM (inactive) | 17.5 µM (inactive) | 21.6 µM (inactive) | 19.2 µM (inactive) | 22.4 µM (inactive) | 16.6 µM (inactive) | 20.9 µM (inactive) | 16.7 µM (inactive) | –
4 | CC1=NOC2(C1)C(=O)Nc1ccccc12 (configuration not stated) | 34.3 µM (inactive) | > 100 µM (inactive) | > 100 µM (inactive) | > 100 µM (inactive) | – | > 100 µM (inactive) | > 100 µM (inactive) | > 100 µM (inactive) | > 100 µM (inactive) | > 100 µM (inactive) | > 100 µM (inactive) | > 100 µM (inactive) | > 100 µM (inactive) | > 100 µM (inactive) | > 100 µM (inactive) | > 100 µM (inactive) | > 100 µM (inactive) | > 100 µM (inactive)
5 | O=C1c2cc(Cl)ccc2N=C(NCCCl)C2CSCN12 (configuration not stated) | > 100 µM (inactive) | > 100 µM (inactive) | > 100 µM (inactive) | > 100 µM (inactive) | – | 86.5 µM (inactive) | > 100 µM (inactive) | 24.3 µM (inactive) | > 100 µM (inactive) | > 100 µM (inactive) | > 100 µM (inactive) | > 100 µM (inactive) | > 100 µM (inactive) | > 100 µM (inactive) | > 100 µM (inactive) | > 100 µM (inactive) | > 100 µM (inactive) | > 100 µM (inactive)
6 | O=C(c1ccco1)N1CCN(C(=O)c2ccco2)C1=S | – | 8.07 µM (inactive) | 2.61 µM (inactive) | 10.6 µM (inactive) | 7.23 µM (inactive) | 20.7 µM (inactive) | 6.22 µM (inactive) | 3.91 µM (inactive) | 3.44 µM (inactive) | 17.1 µM (inactive) | 4.78 µM (inactive) | 6.01 µM (inactive) | 5.87 µM (inactive) | 4.78 µM (inactive) | 10 µM (inactive) | 4.9 µM (inactive) | 6.34 µM (inactive) | 12.4 µM (inactive)
7 | CC(C)(C)OC(=O)N1C(OP(=O)(Oc2ccccc2)Oc2ccccc2)=CSc2ccccc21 | – | 27.5 µM (inactive) | 89.9 µM (inactive) | 47.6 µM (inactive) | 27.9 µM (inactive) | 45.8 µM (inactive) | 25.8 µM (inactive) | 27.1 µM (inactive) | 31.3 µM (inactive) | 34 µM (inactive) | 47.8 µM (inactive) | 59 µM (inactive) | 26.5 µM (inactive) | 27.4 µM (inactive) | 32.9 µM (inactive) | 31.6 µM (inactive) | 46.9 µM (inactive) | 39.4 µM (inactive)
8 | c1ccc2c(c1)ccc1cc3cc(NCCCCNc4ccc5nc6c(ccc7ccccc76)cc5c4)ccc3nc12 | 1.17 µM (inactive) | 1.39 µM (inactive) | 1.29 µM (inactive) | 0.212 µM (active) | 1.58 µM (inactive) | 1.96 µM (inactive) | 1.72 µM (inactive) | 1.91 µM (inactive) | 1.99 µM (inactive) | 2.22 µM (inactive) | 1.31 µM (inactive) | 1.82 µM (inactive) | 2.1 µM (inactive) | 0.455 µM (active) | 0.199 µM (active) | 1.72 µM (inactive) | 1.67 µM (inactive) | –
9 | CC[C@]1(Cc2ccc(OC)c(OC)c2)C=[N+]([O-])O[C@H](OC2CCCC2(c2ccccc2)c2ccccc2)[C@@H]1OC(C)=O (some centres not stated) | – | 2.4 µM (inactive) | 3.03 µM (inactive) | 12.4 µM (inactive) | 3.21 µM (inactive) | 13.1 µM (inactive) | 4.59 µM (inactive) | 2.83 µM (inactive) | 1.65 µM (inactive) | 4.84 µM (inactive) | 4.66 µM (inactive) | 4.76 µM (inactive) | 1.81 µM (inactive) | 2.96 µM (inactive) | 7.94 µM (inactive) | 4.61 µM (inactive) | 2.68 µM (inactive) | 2.74 µM (inactive)
10 | Clc1ccc2nc3c(c(-c4ccccc4)nn3-c3ccccc3)c(-c3ccccc3)c2c1 | – | > 100 µM (inactive) | > 100 µM (inactive) | > 100 µM (inactive) | > 100 µM (inactive) | > 100 µM (inactive) | > 100 µM (inactive) | > 100 µM (inactive) | > 100 µM (inactive) | > 100 µM (inactive) | > 100 µM (inactive) | > 100 µM (inactive) | > 100 µM (inactive) | > 100 µM (inactive) | > 100 µM (inactive) | – | > 100 µM (inactive) | > 100 µM (inactive)
11 | [N-]=[N+]=Nc1ccc(NCCCCCC(=O)ON2C(=O)CCC2=O)c([N+](=O)[O-])c1 | – | 49.1 µM (inactive) | > 100 µM (inactive) | 72.9 µM (inactive) | 10.3 µM (inactive) | < 0.01 µM (active) | 58.3 µM (inactive) | 39.3 µM (inactive) | 54.3 µM (inactive) | > 100 µM (inactive) | 28.5 µM (inactive) | 39.3 µM (inactive) | 74.1 µM (inactive) | 62.1 µM (inactive) | > 100 µM (inactive) | > 100 µM (inactive) | 33.1 µM (inactive) | –
12 | COc1ccc2c(c1)C(=O)CC(N)C2 (configuration not stated) | – | > 100 µM (inactive) | > 100 µM (inactive) | > 100 µM (inactive) | > 100 µM (inactive) | 42.2 µM (inactive) | > 100 µM (inactive) | > 100 µM (inactive) | 88.5 µM (inactive) | > 100 µM (inactive) | 42 µM (inactive) | > 100 µM (inactive) | > 100 µM (inactive) | > 100 µM (inactive) | > 100 µM (inactive) | > 100 µM (inactive) | 68.5 µM (inactive) | 47.6 µM (inactive)
13 | COC(=O)C1=C(OC(=O)/C(=C/c2ccccc2)c2ccccc2)C(C(=O)OC)[C@@]2(O)[C@@H](C(=O)OC)[C@H](C)C[C@@H]1[C@@H]2C(=O)OC (some centres not stated) | > 100 µM (inactive) | > 100 µM (inactive) | > 100 µM (inactive) | > 100 µM (inactive) | – | > 100 µM (inactive) | > 100 µM (inactive) | 45.4 µM (inactive) | > 100 µM (inactive) | > 100 µM (inactive) | > 100 µM (inactive) | > 100 µM (inactive) | > 100 µM (inactive) | > 100 µM (inactive) | > 100 µM (inactive) | > 100 µM (inactive) | > 100 µM (inactive) | > 100 µM (inactive)
14 | O=C(CSCC(=O)N/N=C\c1cc(Br)cc(Br)c1O)N/N=C\c1cc(Br)cc(Br)c1O | – | 12.9 µM (inactive) | 62.4 µM (inactive) | 29.9 µM (inactive) | 19.5 µM (inactive) | 16.1 µM (inactive) | 11.6 µM (inactive) | 11.7 µM (inactive) | 17.6 µM (inactive) | 14.4 µM (inactive) | 23.7 µM (inactive) | 11.3 µM (inactive) | 26.4 µM (inactive) | 32.1 µM (inactive) | 4.28 µM (inactive) | 23.5 µM (inactive) | 18 µM (inactive) | –
15 | Cc1ccc(C(=O)Nc2ccc(CP(=O)(O)O)cc2CP(=O)(O)O)cc1NC(=O)c1cccc(N)c1 | > 100 µM (inactive) | > 100 µM (inactive) | > 100 µM (inactive) | > 100 µM (inactive) | – | > 100 µM (inactive) | > 100 µM (inactive) | > 100 µM (inactive) | > 100 µM (inactive) | > 100 µM (inactive) | > 100 µM (inactive) | > 100 µM (inactive) | > 100 µM (inactive) | > 100 µM (inactive) | > 100 µM (inactive) | > 100 µM (inactive) | > 100 µM (inactive) | > 100 µM (inactive)
16 | Cc1ncc([N+](=O)[O-])n1CCN(C)CCCCn1ccnc1[N+](=O)[O-] | > 100 µM (inactive) | > 100 µM (inactive) | > 100 µM (inactive) | > 100 µM (inactive) | – | > 100 µM (inactive) | > 100 µM (inactive) | – | > 100 µM (inactive) | > 100 µM (inactive) | > 100 µM (inactive) | > 100 µM (inactive) | > 100 µM (inactive) | > 100 µM (inactive) | > 100 µM (inactive) | > 100 µM (inactive) | > 100 µM (inactive) | > 100 µM (inactive)
